Experimental data from the supplement of paper PMC10307832.

Assays:
Test in all cases: relative viability (nuclei count vs DMSO), 5 days (fraction); higher = more cells survive
[1] = compound: CC(C)C[C@@H](C(=O)N[C@H](C(=O)OC1CCCC1)c1ccccc1)[C@H](O)C(=O)NO [Tosedostat] + CC(=O)c1c(C)c2cnc(Nc3ccc(N4CCNCC4)cn3)nc2n(C2CCCC2)c1=O [Palbociclib] (partner 0.5 µM)
How it was run: (§1)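 Lung cancer cell lines, seeded in 1536-well plates, were treated the following day by pin tool with a single drug or with five library-drug doses (not always all listed) in √10 steps on top of a fixed anchor-drug dose. Cells were fixed and nuclei stained in one step after 5 days, and nuclei were counted. Relative viability is the nuclei count for treated wells divided by that for vehicle wells, reported as medians of duplicate plates.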

[2] = compound: CC1=NN=C(O1)C2=NN=C(C=C2)N3CCC(CC3)OC4=C(C=CC(=C4)F)Cl + Nc1ncn([C@H]2C[C@H](O)[C@@H](CO)O2)c(=O)n1 [Decitabine] (partner 2 µM)
How it was run: as §1

[3] = compound: CC1=NN=C(O1)C2=NN=C(C=C2)N3CCC(CC3)OC4=C(C=CC(=C4)F)Cl + C[C@@H](Oc1cc(-c2cnn(C3CCNCC3)c2)cnc1N)c1c(Cl)ccc(F)c1Cl [Crizotinib] (partner 1 µM)
How it was run: as §1

[4] = compound: CC(C)C[C@@H](C(=O)N[C@H](C(=O)OC1CCCC1)c1ccccc1)[C@H](O)C(=O)NO [Tosedostat] + NC(=O)Nc1cc(-c2cccc(F)c2)sc1C(=O)N[C@H]1CCCNC1 [AZD7762] (partner 0.2 µM)
How it was run: as §1

Cell Line | relative viability ([1]; first compound 0.02 µM) | relative viability ([1]; first compound 0.06325 µM) | relative viability ([1]; first compound 0.2 µM) | relative viability ([1]; first compound 0.6325 µM) | relative viability ([1]; first compound 2 µM) | relative viability ([2]; first compound 0.253 µM) | relative viability ([2]; first compound 0.8 µM) | relative viability ([2]; first compound 2.53 µM) | relative viability ([2]; first compound 8 µM) | relative viability ([3]; first compound 0.253 µM) | relative viability ([3]; first compound 0.8 µM) | relative viability ([3]; first compound 2.53 µM) | relative viability ([3]; first compound 8 µM) | relative viability ([4]; first compound 0.02 µM) | relative viability ([4]; first compound 0.06325 µM) | relative viability ([4]; first compound 0.2 µM) | relative viability ([4]; first compound 0.6325 µM) | relative viability ([4]; first compound 2 µM)
NCI-H1666 | 0.589 | 0.696 | 0.61 | 0.601 | 0.657 | 0.561 | 0.674 | 0.69 | 0.534 | 0.612 | 0.621 | 0.636 | 0.629 | 0.878 | 0.919 | 1.02 | 0.912 | 0.907
NCI-H2405 | 0.576 | 0.559 | 0.548 | 0.484 | 0.466 | 0.452 | 0.43 | 0.485 | 0.443 | 0.503 | 0.428 | 0.465 | 0.428 | 0.817 | 0.744 | 0.718 | 0.652 | 0.715
NCI-H2126 | 0.328 | 0.352 | 0.352 | 0.352 | 0.352 | 0.542 | 0.549 | 0.488 | 0.52 | 0.921 | 0.858 | 0.891 | 0.841 | 0.99 | 1.03 | 0.919 | 0.974 | 0.953
NCI-H460 | 0.192 | 0.203 | 0.11 | 0.146 | 0.128 | 0.164 | 0.167 | 0.201 | 0.166 | 0.359 | 0.301 | 0.311 | 0.296 | 0.728 | 0.66 | 0.709 | 0.665 | 0.705
NCI-H1993 | 0.72 | 0.688 | 0.698 | 0.67 | 0.562 | 0.554 | 0.551 | 0.484 | 0.647 | 0.779 | 0.806 | 0.794 | 0.993 | 0.678 | 0.64 | 0.741 | 0.556 | 0.493
HCC-78 | 0.502 | 0.46 | 0.41 | 0.486 | 0.495 | 0.491 | 0.43 | 0.397 | 0.509 | 0.294 | 0.297 | 0.288 | 0.311 | 0.355 | 0.771 | 0.65 | 0.738 | 0.791
LU99A | 0.428 | 0.449 | 0.476 | 0.376 | 0.325 | 0.891 | 0.913 | 0.812 | 0.834 | 0.571 | 0.604 | 0.655 | 0.552 | 0.369 | 0.333 | 0.374 | 0.293 | 0.297
HCC-827 | 0.421 | 0.536 | 0.505 | 0.466 | 0.502 | 0.342 | 0.298 | 0.183 | 0.282 | 0.331 | 0.224 | 0.326 | 0.308 | 0.201 | 0.257 | 0.347 | 0.176 | 0.178
NCI-H1975 | 0.574 | 0.53 | 0.561 | 0.432 | 0.415 | 0.258 | 0.28 | 0.358 | 0.278 | – | 0.918 | 0.782 | 0.777 | 0.768 | 0.776 | 0.7 | 0.654 | 0.608
NCI-H2085 | – | 0.498 | 0.474 | 0.512 | 0.561 | 0.479 | 0.477 | 0.446 | 0.406 | 0.76 | 0.656 | 0.821 | 0.683 | – | 1.03 | 1.05 | 0.973 | 0.965
NCI-H1792 | 0.659 | 0.634 | 0.612 | 0.683 | 0.695 | 0.396 | 0.507 | 0.558 | 0.442 | 0.414 | 0.447 | 0.378 | 0.451 | 0.523 | 0.77 | 0.606 | 0.644 | 0.586
NCI-H1734 | 0.367 | 0.372 | 0.354 | 0.313 | 0.265 | 0.519 | 0.482 | 0.463 | 0.503 | 0.652 | 0.688 | 0.62 | 0.626 | 0.614 | 0.535 | 0.504 | 0.411 | 0.466
NCI-H650 | 0.31 | 0.342 | 0.291 | 0.35 | 0.295 | 0.334 | 0.331 | 0.336 | 0.285 | 0.691 | 0.692 | 0.64 | 0.818 | 1.32 | 1.05 | 0.904 | 0.851 | 0.725
LCLC-103H | 0.447 | 0.483 | 0.456 | 0.504 | 0.486 | 0.491 | 0.694 | 0.552 | 0.435 | 0.819 | 0.746 | 0.723 | 0.746 | 0.886 | 0.713 | 0.69 | 0.77 | 0.852
LCLC-97TM1 | 0.227 | 0.184 | 0.185 | 0.221 | 0.194 | 0.205 | – | 0.186 | 0.18 | 0.262 | – | 0.442 | 0.327 | 0.291 | 0.209 | 0.164 | 0.197 | 0.195
HOP-62 | 0.478 | 0.467 | 0.463 | 0.462 | 0.439 | 0.189 | 0.184 | 0.19 | 0.18 | 0.71 | – | 0.784 | 0.575 | 0.56 | 0.556 | 0.753 | 0.345 | 0.379
NCI-H23 | 0.509 | 0.494 | 0.521 | 0.37 | 0.428 | 0.268 | 0.328 | 0.295 | 0.282 | 0.6 | – | 0.454 | 0.441 | 0.31 | 0.248 | 0.232 | 0.202 | 0.253
